Test results from US20250154163A1, “Pyrimidinone-Containing 17-Beta-Hydroxysteroid Dehydrogenase Type 13 Inhibitors” (ENANTA PHARMACEUTICALS, INC., priority 2023, published 2025).
pIC50: −log10 of the molar value.

molecular target: T1, human HSD17β13 (stable HEK293T cell line overexpressing human HSD17β13) (Homo sapiens, UniProt Q7Z5P4); assay: HSD17β13 inhibitor cell-based screening assay (conversion of estradiol-d2 to estrone-d2 by RF-MS); conditions: conversion of estradiol-d2 to estrone-d2 after 24 hours
T1 construct: expressed in transfected cells
T1 sequence (Q7Z5P4 20-300): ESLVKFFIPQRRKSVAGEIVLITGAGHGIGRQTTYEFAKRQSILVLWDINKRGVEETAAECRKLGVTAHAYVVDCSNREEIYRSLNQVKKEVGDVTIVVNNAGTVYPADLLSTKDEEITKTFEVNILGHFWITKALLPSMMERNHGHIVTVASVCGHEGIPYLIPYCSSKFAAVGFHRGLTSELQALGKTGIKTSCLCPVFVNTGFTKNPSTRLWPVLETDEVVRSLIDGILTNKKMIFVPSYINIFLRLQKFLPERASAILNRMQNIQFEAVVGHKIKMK
Method in brief: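 Cellular IC50 is based on 24-h conversion of estradiol-d2 (5 μM final) to estrone-d2, measured by RF-MS in acetonitrile-precipitated supernatants. Assay uses human HSD17β13-overexpressing HEK293T cells (7.5E3/well, 1% charcoal/dextran FBS MEM), with compounds dosed as a 9-point 1:3 series to 10 μM final. ATPlite luminescence on overexpressing and parent lines measured viability.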

| SMILES | pIC50 |
| --- | --- |
| COc1ccc(-c2nc3sc4c(O)c(Cl)ccc4c3c(=O)n2Cc2cnc(C)nc2)c(C2CC2)c1 [Example 58, 7-chloro-2-(2-cyclopropyl-4-methoxyphenyl)-8-hydroxy-3-((2-methylpyrimidin-5-yl)methyl)benzo[4,5]thieno[2,3-d]pyrimidin-4(3H)-one] | > 7.00 |
| COc1ccc(-c2nc3sc4c(O)c(Cl)ccc4c3c(=O)n2Cc2cn(C(F)F)nn2)c(C2CC2)c1 [Example 129] | > 7.00 |
| COc1ccc(-c2nc3sc4c(O)c(Cl)ccc4c3c(=O)n2Cc2ccncc2)c(C2CC2)c1 [Example 151] | > 7.00 |
| CCn1c(=O)c(C)cn(CCn2c(-c3ccc(OC)cc3C3CC3)nc3sc4c(O)c(Cl)ccc4c3c2=O)c1=O [Example 150] | 6.00 to 6.30 |
| O=c1c2c(nc(-c3ccccc3C3CC3)n1Cc1cnco1)sc1c(O)c(Cl)ccc12 [Example 87] | > 7.00 |
| O=c1c2c(nc(-c3ncc(Cl)cc3C3CC3)n1Cc1cc(C(F)(F)F)no1)sc1c(O)c(Cl)ccc12 [Example 103] | > 7.00 |
| O=c1c2c(nc(-c3ccc(C(F)(F)F)nc3C3CC3)n1Cc1cnc(C(F)(F)F)nc1)sc1c(O)c(Cl)ccc12 [Example 67, 7-chloro-2-(2-cyclopropyl-6-(trifluoromethyl)pyridin-3-yl)-8-hydroxy-3-((2-(trifluoromethyl)pyrimidin-5-yl)methyl)benzo[4,5]thieno[2,3-d]pyrimidin-4(3H)-one] | > 7.00 |
| O=c1c2c(nc(-c3cccc(C(F)(F)F)c3C3CC3)n1Cc1cnco1)sc1c(O)c(Cl)ccc12 [Example 139] | > 7.00 |
| COc1ccc(-c2nc3sc4c(O)c(Cl)ccc4c3c(=O)n2Cc2cnco2)c(C2CC2)n1 [Example 93] | > 7.00 |
| COc1ccc(-c2nc3sc4c(O)c(Cl)ccc4c3c(=O)n2Cc2cnc(C3CC3)o2)c(C2CC2)c1 [Example 49, 7-chloro-2-(2-cyclopropyl-4-methoxyphenyl)-3-((2-cyclopropyloxazol-5-yl)methyl)-8-hydroxybenzo[4,5]thieno[2,3-d]pyrimidin-4(3H)-one] | > 7.00 |
| COc1ccc(-c2nc3sc4c(O)c(Cl)ccc4c3c(=O)n2Cc2ccno2)c(C2CC2)c1 [Example 47, 7-chloro-2-(2-cyclopropyl-4-methoxyphenyl)-8-hydroxy-3-(isoxazol-5-ylmethyl)benzo[4,5]thieno[2,3-d]pyrimidin-4(3H)-one] | > 7.00 |
| COc1ccc(-c2nc3sc4c(O)c(C#N)ccc4c3c(=O)n2Cc2cnco2)c(C2CC2)c1 [Example 33, 2-(2-cyclopropyl-4-methoxyphenyl)-8-hydroxy-3-(oxazol-5-ylmethyl)-4-oxo-3,4-dihydrobenzo[4,5]thieno[2,3-d]pyrimidine-7-carbonitrile] | 6.00 to 6.30 |
| COc1ccc(-c2nc3sc4c(O)c(Cl)ccc4c3c(=O)n2Cc2ccnc(C(F)(F)F)c2)c(C2CC2)c1 [Example 155] | > 7.00 |
| COc1ccc(-c2nc3sc4c(O)c(C(=O)O)ccc4c3c(=O)n2Cc2cnco2)c(C2CC2)c1 [Example 34, 2-(2-cyclopropyl-4-methoxyphenyl)-8-hydroxy-3-(oxazol-5-ylmethyl)-4-oxo-3,4-dihydrobenzo[4,5]thieno[2,3-d]pyrimidine-7-carboxylic acid] | 4.00 to 6.00 |
| COc1ccc(-c2nc3sc4c(O)c(Cl)ccc4c3c(=O)n2Cc2cnc(C)o2)c(C2CC2)c1 [Example 59, 7-chloro-2-(2-cyclopropyl-4-methoxyphenyl)-8-hydroxy-3-((2-methyloxazol-5-yl)methyl)benzo[4,5]thieno[2,3-d]pyrimidin-4(3H)-one] | > 7.00 |
| O=c1c2c(nc(-c3ncc(C(F)(F)F)cc3C3CC3)n1Cc1ccc(C(F)(F)F)nc1)sc1c(O)c(Cl)ccc12 [Example 100] | > 7.00 |
| O=c1c2c(nc(-c3ccc(C(F)(F)F)nc3C3CC3)n1Cc1ccc(C(F)(F)F)nc1)sc1c(O)c(Cl)ccc12 [Example 68, 7-chloro-2-(2-cyclopropyl-6-(trifluoromethyl)pyridin-3-yl)-8-hydroxy-3-((6-(trifluoromethyl)pyridin-3-yl)methyl)benzo[4,5]thieno[2,3-d]pyrimidin-4(3H)-one] | > 7.00 |
| COc1ccc(-c2nc3sc4c(O)c(Cl)ccc4c3c(=O)n2Cc2cncc(C(F)(F)F)c2)c(C2CC2)c1 [Example 154] | > 7.00 |
| O=c1c2c(nc(-c3ccc4cc[nH]c4c3C3CC3)n1Cc1cnco1)sc1c(O)c(Cl)ccc12 [Example 140] | > 7.00 |
| COc1ccc(-c2nc3sc4c(O)ccc(F)c4c3c(=O)n2Cc2cnco2)c(C2CC2)c1 [Example 55, 2-(2-cyclopropyl-4-methoxyphenyl)-5-fluoro-8-hydroxy-3-(oxazol-5-ylmethyl)benzo[4,5]thieno[2,3-d]pyrimidin-4(3H)-one] | > 7.00 |

The remaining lines, values ahead:

| pIC50 | SMILES |
| --- | --- |
| > 7.00 | O=c1c2c(nc(-c3cc(F)c(F)cc3C3CC3)n1Cc1nnc(C(F)(F)F)s1)sc1c(O)c(Cl)ccc12 [Example 217] |
| > 7.00 | COc1ccc(-c2nc3sc4c(O)c(Cl)ccc4c3c(=O)n2Cc2cc(C(F)F)no2)c(C2CC2)c1 [Example 199] |
| > 7.00 | N#Cc1ccc(-c2nc3sc4c(O)c(Cl)ccc4c3c(=O)n2Cc2cccnc2)c(C2CC2)c1 [Example 170] |
| > 7.00 | CS(=O)(=O)c1ccc(-c2nc3sc4c(O)c(Cl)ccc4c3c(=O)n2Cc2cccnc2)c(C2CC2)c1 [Example 166] |
| > 7.00 | O=c1c2c(nc(-c3cc(F)c(F)cc3C3CC3)n1Cc1cccnc1)sc1c(O)c(Cl)ccc12 [Example 163] |
| > 7.00 | Cn1cc(Cn2c(-c3cc(F)c(C(F)F)cc3C3CC3)nc3sc4c(O)c(Cl)ccc4c3c2=O)ccc1=O [Example 187] |
| > 7.00 | COc1ccc(-c2nc3sc4c(O)c(Cl)ccc4c3c(=O)n2Cc2cncn2C)c(C2CC2)c1 [Example 193] |
| > 7.00 | O=c1c2c(nc(-c3cc(F)c(F)cc3C3CC3)n1Cc1cc(C(F)(F)F)no1)sc1c(O)c(Cl)cc(F)c12 [Example 219, 7-chloro-2-(2-cyclopropyl-4,5-difluorophenyl)-5-fluoro-8-hydroxy-3-((3-(trifluoromethyl)isoxazol-5-yl)methyl)benzo[4,5]thieno[2,3-d]pyrimidin-4(3H)-one] |
| > 7.00 | COc1ccc(-c2nc3sc4c(O)c(Cl)cc(F)c4c3c(=O)n2Cc2cnco2)c(C2CC2)c1 [Example 218, 7-chloro-2-(2-cyclopropyl-4-methoxyphenyl)-5-fluoro-8-hydroxy-3-(oxazol-5-ylmethyl)benzo[4,5]thieno[2,3-d]pyrimidin-4(3H)-one] |
| > 7.00 | O=c1c2c(nc(-c3cc(F)c(F)cc3C3CC3)n1Cc1ccc(C(F)(F)F)nc1)sc1c(O)c(Cl)ccc12 [Example 162] |
| > 7.00 | O=c1c2c(nc(-c3ccc(C(F)F)cc3C3CC3)n1Cc1cnc(C(F)(F)F)nc1)sc1c(O)c(Cl)ccc12 [Example 177] |
| > 7.00 | COc1ccc(-c2nc3sc4c(O)c(Cl)ccc4c3c(=O)n2Cc2ccc(OC)nc2)c(C2CC2)c1 [Example 160] |
| > 7.00 | COc1ccc(-c2nc3sc4c(O)c(Cl)ccc4c3c(=O)n2Cc2cnn(C(F)(F)F)c2)c(C2CC2)c1 [Example 201] |
| 6.30 to 7.00 | COc1cc(C2CC2)c(-c2nc3sc4c(O)c(Cl)ccc4c3c(=O)n2Cc2cnco2)cn1 [Example 203] |
| > 7.00 | COc1ccc(-c2nc3sc4c(O)c(Cl)ccc4c3c(=O)n2Cc2ncc(C)o2)c(C2CC2)c1 [Example 200, 7-chloro-2-(2-cyclopropyl-4-methoxyphenyl)-8-hydroxy-3-((5-methyloxazol-2-yl)methyl)benzo[4,5]thieno[2,3-d]pyrimidin-4(3H)-one] |
